Like-named read-outs stand apart in the source and are kept apart here.
Experiments:
Type in all cases: cell-based
NR2F6 = biological target: T1, NR2F6 (Homo sapiens, UniProt P10588); experiment: NR2F6 agonist screening, Firefly signal cmpd/DMSO; details: for Firefly, cmpd/DMSO repeat 1 / Firefly, cmpd/DMSO repeat 2: first set screening, 10 μM; for Firefly F4, cmpd/DMSO (mean): Table 14
T1 construct: expressed in transfected cells; also transient transfection
T1 sequence (P10588 1-404): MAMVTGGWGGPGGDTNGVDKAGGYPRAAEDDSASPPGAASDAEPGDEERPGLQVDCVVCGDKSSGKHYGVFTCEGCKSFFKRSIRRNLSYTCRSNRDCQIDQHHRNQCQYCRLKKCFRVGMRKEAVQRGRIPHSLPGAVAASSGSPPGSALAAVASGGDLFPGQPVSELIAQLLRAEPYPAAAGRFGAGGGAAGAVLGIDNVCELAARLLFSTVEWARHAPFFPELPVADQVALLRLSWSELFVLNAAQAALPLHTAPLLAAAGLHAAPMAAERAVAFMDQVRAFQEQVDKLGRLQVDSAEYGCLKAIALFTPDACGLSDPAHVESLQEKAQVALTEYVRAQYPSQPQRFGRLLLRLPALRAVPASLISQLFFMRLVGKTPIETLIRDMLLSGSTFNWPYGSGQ

ERα = biological target: T2, ERα (Homo sapiens, UniProt P03372); experiment: Counterscreening, Firefly signal with ERα transient transfection (Firefly_ERa); details: ERα transient transfection, 10 μM
T2 construct: expressed in transfected cells
T2 sequence (P03372 1-595): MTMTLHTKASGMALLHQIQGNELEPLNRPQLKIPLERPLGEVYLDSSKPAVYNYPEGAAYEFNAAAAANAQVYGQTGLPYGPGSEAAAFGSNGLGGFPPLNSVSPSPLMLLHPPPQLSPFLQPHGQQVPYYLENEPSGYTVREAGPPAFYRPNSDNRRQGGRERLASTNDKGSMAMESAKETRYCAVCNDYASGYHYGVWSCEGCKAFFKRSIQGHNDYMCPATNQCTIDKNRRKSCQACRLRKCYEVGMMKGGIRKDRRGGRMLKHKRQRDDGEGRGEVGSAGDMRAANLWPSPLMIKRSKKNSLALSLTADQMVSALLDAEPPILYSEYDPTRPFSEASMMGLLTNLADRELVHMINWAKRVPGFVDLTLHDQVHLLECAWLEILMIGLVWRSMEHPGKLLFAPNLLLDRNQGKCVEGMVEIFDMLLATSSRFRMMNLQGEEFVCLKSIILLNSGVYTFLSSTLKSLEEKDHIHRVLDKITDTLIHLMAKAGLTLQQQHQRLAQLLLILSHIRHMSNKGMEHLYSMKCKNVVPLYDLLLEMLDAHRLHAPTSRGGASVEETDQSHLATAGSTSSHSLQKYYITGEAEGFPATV
Method: The methodology for screening candidate compounds as NR2F6 agonists was as follows: For primary screening, hit criteria was ACT %>DMSO control+5*SD (DSO control) at 10 μM, or any compound with S/B>2. For rescreening, hit criteria was ACT %>DMSO control+3*SD (DSO control) in each replicate at 10 μM. For counterscreening, hit criteria was mean ACT<DMSO control+3*SD (DMSO control) with ERα transient transfection in duplicate at 10 μM.

Renilla = Renilla signal in NR2F6 agonist screening, cmpd/DMSO; details: for fold induction at 2 µM / fold induction at 10 µM / fold induction at 40 µM: Renilla
Renilla_ERa = experiment: Renilla signal in ERα counterscreen (Renilla_ERa); details: ERα transient transfection, 10 μM
HEK293 pGL4 = experiment: Firefly_pGL signal, cmpd/DMSO (pGL4 control cells); details: Homo sapiens, HEK293, Table 14, read-out: Firefly pGL4, cmpd/DMSO (mean)
[1] = first set screening, 10 μM, repeat 1
[2] = first set screening, 10 μM, repeat 2
[3] = Table 14, read-out: Renilla F4, cmpd/DMSO (mean)
[4] = Table 14, 10 uM, read-out: Renilla F4, cmpd/DMSO (mean)
[5] = first set screening, 10 μM, repeat 1, read-out: Renilla, cmpd/DMSO repeat 1
[6] = first set screening, 10 μM, repeat 2, read-out: Renilla, cmpd/DMSO repeat 2
[7] = repeat 1, read-out: Renilla_ERa, cmpd/DMSO repeat 1
[8] = repeat 2, read-out: Renilla_ERa, cmpd/DMSO repeat 2

Structure (SMILES) | Firefly, cmpd/DMSO repeat 1 (NR2F6) | Firefly, cmpd/DMSO repeat 2 (NR2F6) | Firefly_ERa, cmpd/DMSO repeat 1 (ERα) | Firefly_ERa, cmpd/DMSO repeat 2 (ERα) | Renilla, cmpd/DMSO repeat 1 (Renilla; [1]) | Renilla, cmpd/DMSO repeat 2 (Renilla; [2]) | Renilla_ERa, cmpd/DMSO repeat 1 (Renilla_ERa; repeat 1) | Renilla_ERa, cmpd/DMSO repeat 2 (Renilla_ERa; repeat 2) | fold induction at 10 µM (Renilla; [5]) | fold induction at 10 µM (Renilla; [6]) | fold induction at 10 µM (Renilla_ERa; [7]) | fold induction at 10 µM (Renilla_ERa; [8]) | other results
O=c1[nH]c(CS(=O)(=O)c2ccccc2)nc2sc3c(c12)CCCC3 [Compound 25] | 2.4 | 1.9 | 1.3 | 0.7 | 3.1 | 2.1 | 0.9 | 1.0 | – | – | – | – | –
CCn1c2c(c(=O)[nH]c1=O)C(c1ccc(C(C)C)cc1)C1=C(N2)c2ccccc2C1=O (stereo not drawn) [Compound 21] | 2.4 | 2.2 | 1.1 | 1.0 | 3.8 | 3.0 | 1.1 | 0.9 | – | – | – | – | –
Cc1cc(NC(=O)CCS(=O)(=O)c2nc(-c3ccc4c(c3)OCO4)cc(C(F)(F)F)n2)no1 [Compound C1] | 3.4 | 4.1 | 1.0 | 1.0 | – | – | – | – | 4.1 | 1.5 | 1.3 | 1.2 | Firefly F4, cmpd/DMSO (mean) (NR2F6; 2 uM): 0.5; Firefly F4, cmpd/DMSO (mean) (NR2F6; 10 uM): 0.5; Firefly F4, cmpd/DMSO (mean) (NR2F6; 40 uM): 0.4; activity (in words) (NR2F6; screening result): particularly good activity; fold induction at 2 µM (Renilla; [3]): 2.1; fold induction at 10 µM (Renilla; [4]): 0.2; fold induction at 40 µM (Renilla; [3]): 0.2; fold induction at 2 µM (HEK293 pGL4): 0.7; fold induction at 10 µM (HEK293 pGL4): 0.7; fold induction at 40 µM (HEK293 pGL4): 0.6
CNC(=O)c1ccc2c(c1)N=C(C)c1cc(C)ccc1S2 [Compound C9] | 2.7 | 1.9 | 2.5 | 2.4 | – | – | – | – | 2.4 | 2.5 | 0.9 | 1 | –
Cc1ccnc(NC(=O)c2cc3sc4ccccc4c3s2)c1 [Compound 20] | 2.2 | 2.1 | 1.5 | 1.7 | 4.4 | 4.8 | 1.1 | 0.9 | – | – | – | – | –
CCc1cc(C(=O)Nc2ccn(Cc3ccc(C)cc3)n2)no1 [Compound C6] | 2.6 | 1.9 | 2.2 | 1.4 | – | – | – | – | 1.2 | 0.9 | 1 | 1 | Firefly F4, cmpd/DMSO (mean) (NR2F6; 2 uM): 1.4; Firefly F4, cmpd/DMSO (mean) (NR2F6; 10 uM): 0.6; Firefly F4, cmpd/DMSO (mean) (NR2F6; 40 uM): 0.4; fold induction at 2 µM (Renilla; [3]): 0.7; fold induction at 10 µM (Renilla; [4]): 0.6; fold induction at 40 µM (Renilla; [3]): 0.5; fold induction at 2 µM (HEK293 pGL4): 1.3; fold induction at 10 µM (HEK293 pGL4): 1.3; fold induction at 40 µM (HEK293 pGL4): 1
COCCNC(=O)c1ccc2c(c1)N=C(C)c1cc(C)ccc1S2 [Compound C8] | 2.1 | 2.8 | 1.2 | 1.2 | – | – | – | – | 3.4 | 3.1 | 1 | 1.1 | –
CCn1c(=O)c2cc(C(=O)Nc3ccc4c(C)cc(=O)oc4c3)sc2c2ccccc21 [Compound C16] | 2.7 | 2.3 | 1.0 | 0.9 | – | – | – | – | 3.9 | 3.2 | 0.9 | 1.1 | –
COc1cc(Nc2c3c(nc4ccc(Cl)cc24)CCC3)cc(OC)c1OC [Compound C10] | 2.1 | 2.6 | 1.0 | 1.3 | – | – | – | – | 3.1 | 1.6 | 0.7 | 0.8 | –
COc1ccc(-c2cc(C(F)(F)F)nc(S(=O)(=O)CCCC(=O)Nc3sc4c(c3C(N)=O)CCCC4)n2)cc1OC [Compound C2] | 2.7 | 2.2 | 1.0 | 0.8 | – | – | – | – | 6 | 5.3 | 1.7 | 1.6 | –
CCc1ccc(OCC(=O)Nc2cc(-c3nc4cc(C)ccc4o3)ccc2C)cc1 [Compound 24] | 2.0 | 2.3 | 1.3 | 1.6 | 2.4 | 2.2 | 0.9 | 1.0 | – | – | – | – | –
Nc1nonc1-c1noc(-c2cccc(COc3ccc(Cl)cc3Cl)c2)n1 [Compound 23] | 3.0 | 1.9 | 1.8 | 1.8 | 4.6 | 3.4 | 1.1 | 1.2 | – | – | – | – | –
O=C(Nc1ccc(Cl)cn1)c1ccc(I)cc1 [Compound 18] | 3.8 | 3.8 | 2.5 | 1.9 | – | – | – | – | 3.3 | 4.2 | 0.8 | 0.9 | –
